The term IC50 denotes the point on the concentration scale where inhibition reaches its midpoint.

Consider four compounds from patent US6576671B1, “Aminotetralin derivatives for the therapy of cardiovascular diseases” (Chiese Farmaceutici S.p.A., priority 1999, dated 2003).

Assay [1] has as its system dogs. The conditions noted are these: approximately 10 μg/kg per minute continuous intravenous infusion; cited from earlier work.
The target of assay [2] is T1, α2 adrenergic receptors (Homo sapiens, UniProt P08913).
T1 construct: from tissue; host or cells: human platelets
T1 sequence (P08913 1-465): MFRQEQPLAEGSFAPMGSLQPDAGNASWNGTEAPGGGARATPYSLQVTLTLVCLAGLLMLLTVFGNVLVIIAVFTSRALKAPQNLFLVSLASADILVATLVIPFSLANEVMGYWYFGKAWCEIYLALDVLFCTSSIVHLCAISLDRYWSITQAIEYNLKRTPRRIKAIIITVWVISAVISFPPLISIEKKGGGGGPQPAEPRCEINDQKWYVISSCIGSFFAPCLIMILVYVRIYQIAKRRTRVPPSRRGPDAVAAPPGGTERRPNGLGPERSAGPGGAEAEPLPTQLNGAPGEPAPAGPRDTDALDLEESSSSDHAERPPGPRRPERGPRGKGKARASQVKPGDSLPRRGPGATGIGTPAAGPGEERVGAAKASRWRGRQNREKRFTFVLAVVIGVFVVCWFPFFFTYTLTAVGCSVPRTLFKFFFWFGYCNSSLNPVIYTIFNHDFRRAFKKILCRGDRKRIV
Kind of assay: α2 adrenergic receptor binding, [3H]-rauwolscine, human platelets. An excerpt:
(§1) The antagonist [^3H]-rauwolscine was used as marker of the receptor, being its binding reversible, saturable and specific.

Assay [3] concerns α2 adrenergic receptors. Kind of assay: α2 adrenergic receptor binding, [3H]-rauwolscine, rat cerebral cortex. The conditions noted are these: for IC50: rat cerebral cortex, read-out: IC50, 50% inhibition of [3H]-rauwolscine specific binding. The procedure: The affinity of CHF 1024 and CHF 1035 for α2, adrenergic receptors was tested on human platelets and on rat cerebral cortex.
as §1
Values are expressed as IC50=molar concentration of drug required for 50% inhibition of [^3H]-rauwolscine specific binding.

The target of assay [4] is α2-adrenergic receptors. Briefly: α2-adrenergic activity in isolated neuronally-stimulated rat vas deferens. The conditions noted are these: for IC50: isolated neuronally-stimulated rat vas deferens, read-out: IC50, 50% inhibition of the electrically induced contraction.
The target in assay [5] is T2, peripheral DA2 dopaminergic receptors (Bos taurus, UniProt P20288).
T2 construct: peripheral DA2 dopaminergic receptors was tested on bovine adrenal cortex; from tissue; host or cells: bovine adrenal cortex
T2 sequence (P20288 whole entry): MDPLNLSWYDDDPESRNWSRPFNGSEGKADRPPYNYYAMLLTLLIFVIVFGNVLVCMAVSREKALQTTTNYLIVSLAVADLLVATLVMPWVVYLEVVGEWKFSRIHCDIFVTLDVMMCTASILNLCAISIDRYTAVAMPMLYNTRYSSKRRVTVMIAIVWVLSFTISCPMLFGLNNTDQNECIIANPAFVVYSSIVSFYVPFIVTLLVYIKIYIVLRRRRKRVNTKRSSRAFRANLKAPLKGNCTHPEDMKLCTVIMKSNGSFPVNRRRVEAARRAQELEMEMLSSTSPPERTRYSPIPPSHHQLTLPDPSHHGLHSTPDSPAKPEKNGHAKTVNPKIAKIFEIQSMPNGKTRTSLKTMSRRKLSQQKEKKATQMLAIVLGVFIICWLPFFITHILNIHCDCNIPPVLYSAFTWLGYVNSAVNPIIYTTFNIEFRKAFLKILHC
Kind of assay: Peripheral DA2 dopaminergic binding test, [3H](-)sulpiride, bovine adrenal cortex. The procedure:
The affinity of CHF 1024 for peripheral DA2 dopaminergic receptors was tested on bovine adrenal cortex evaluating its effect on the interaction of [^3H](-)sulpiride with the specific binding sites of this system.

Assay [6] deals with peripheral DA2 dopaminergic receptors (Oryctolagus cuniculus, UniProt G1T1Q0). Kind of assay: Peripheral DA2 dopaminergic activity in electrically stimulated rabbit rectococcygeus muscle. The conditions noted are these: for IC50: read-out: IC50, 50% inhibition of the electrically induced contraction. An excerpt: The activity of CHF 1024 and CHF 1035 on peripheral DA2 dopaminergic receptors has been tested in the electrically stimulated rabbit rectococcygeus muscle.
peripheral DA2 dopaminergic receptors (Oryctolagus cuniculus, UniProt G1T1Q0), sequence (G1T1Q0 1-443): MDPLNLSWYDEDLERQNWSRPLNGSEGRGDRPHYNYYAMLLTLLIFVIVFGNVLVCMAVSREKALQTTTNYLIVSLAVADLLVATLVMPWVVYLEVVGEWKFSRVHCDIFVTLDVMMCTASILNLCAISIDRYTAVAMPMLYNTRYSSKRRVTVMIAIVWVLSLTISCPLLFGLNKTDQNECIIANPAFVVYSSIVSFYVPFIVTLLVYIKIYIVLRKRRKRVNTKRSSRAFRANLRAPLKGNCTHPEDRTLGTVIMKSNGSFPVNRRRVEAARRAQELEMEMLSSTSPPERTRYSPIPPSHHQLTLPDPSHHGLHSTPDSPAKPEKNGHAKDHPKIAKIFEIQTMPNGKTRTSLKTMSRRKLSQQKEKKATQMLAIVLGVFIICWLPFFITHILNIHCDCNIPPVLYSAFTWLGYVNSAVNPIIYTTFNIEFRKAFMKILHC

Assay [7] concerns anesthetized rats. Kind of assay: In vivo cardiovascular effects in anesthetized rats. The arrangement: species or system rat. The conditions noted are these: for mean arterial pressure, change from basal value: 0.69 µg/kg/min i.v. The procedure: Male albino rats (Sprague Dawley, 350-400 g) were anesthetized by sodium pentobarbital (60 mg/kg) and maintained by i.v. infusion (6 mg/h). The trachea was cannulated to facilitate spontaneous respiration and body temperature was maintained at 37 C. Homoiothermic Blanket Control System (Harvard, England).
The right femoral artery was cannulated for arterial blood pressure measurement and left jugular vein or duodenum were cannulated for drug administration. Mean arterial pressure and heart rate were continuously monitored by pressure transducer and medium gain amplifier triggered by the ECG signal, respectively. […]
CHF 1035 was administered intraduodenally (1 mg/kg).
The response to […] was determined in the absence and in the presence of the selective β2-adrenoceptor antagonist ICI 118.551 (0.2 mg/kg i.v.) and the selective DA2-dopaminergic antagonist domperidone (0 3 mg/kg i.v.) both alone and in combination. The antagonists were administered 10 min before the i.d. drug administration.

The subject of assay [8] is rats with left ventricular dysfunction. Briefly: Rat model of left ventricular dysfunction after coronary artery occlusion, urine catecholamine excretion. Type of assay: in vivo. The procedure: Myocardial infarction (MI) was induced by left coronary artery ligation in 134 rats, and 6 were left unoperated. After two months, the survived animals with ECG evidence of MI entered a four-week treatment phase. They were randomly allocated to one of the following treatments: 1) delapril 6 mg.kg^−1.day^−1, (n=12), 2) delapril 6 mg.kg^−1.day^−1 and CHF 1024 0.33 mg.kg^−1.day^−1(n=13), 3) vehicle (0.05% ascorbic acid; n=12).
Delapril was dissolved in drinking water at the final concentration of 0.043 mg/ml. The delapril solutions were prepared, freshly every third day and their concentration adjusted to body weight every 15 days to obtain an average dose of 6 mg.kg^−1.day^−1.
CHF 1024 was administered continuously for four weeks through osmotic minipumps implanted subcutaneously behind the neck.
Concentrated solutions of CHF 1024 were dissolved in 10% ascorbic acid in distilled water at a final concentration of 40 mM (mean delivery rate 0.33 mg.kg^−1.day^−1).
At week 4 of treatment, the rats were placed in individual metabolic cages to collect 24-hour urine for measuring catecholamine excretion. […] Only rats with mean infarct size >12%, histologically determined in 6-10 serial cross-sections as percentage of LV area, were analyzed. The numbers of animals analyzed in each experimental group were 6 (vehicle), 6 (delapril alone), 8 (delapril and CHF 1024) and 6 non-operated.

Assay [9] deals with dopamine receptor. The conditions noted are these: cited from earlier work.

For the compound `Br.CNC1CCc2c(ccc(O)c2O)C1` (stereo not drawn) [5,6-dihydroxy-2-methylaminotetralin hydrobromide], the coronary blood flow entry in assay [1] is recorded as “substantial increase”.

On to `CNC1CCc2c(ccc(O)c2O)C1` (stereo not drawn) [CHF 1024, 5,6-dihydroxy-2-methylaminotetralin], for which the IC50 in [2] (human platelets, read-out: IC50, 50% inhibition of [3H]-rauwolscine specific binding) was found to be 339 nM; in assay [3], 262 nM; in assay [4] it was 270 nM; in [5], 21 nM; in assay [6] it was 37.3 nM. Also, the “affinity higher than dopamine” value in assay [2] (platelets) is recorded as 9 times; in [3] (cerebral cortex), 15 times. For the same compound, the “more potent than dopamine” value was “about 20 times” in [4] (rat vas deferens) and “approximately 3 times” in [6]. The “affinity for DA2 receptors higher than dopamine” value in assay [5] (bovine adrenal cortex) is on record as 11 times. Also, the “effect in presence of selective DA2-antagonist domperidone” value in [6] is listed as “competitively antagonized”. In addition, the “mean arterial pressure, change from basal value” in assay [7] (5 min after infusion start) is −24.0; in [7] (5 min after infusion stop), −12.7; in assay [7] (30 min after infusion start), −25.7; in assay [7] (30 min after infusion stop), −6.7. In assay [7] (intravenous administration, persists after infusion discontinuation), the “effect on mean arterial pressure” value is “dose-dependent reduction”. Moreover, the heart rate entry in assay [7] (intravenous infusion, in spite of marked hypotension) is reported as “no increase”. Besides, the “urine norepinephrine excretion, reduced with respect to the vehicle group” value in assay [8] (CHF 1024 0.33 mg.kg^−1.day^−1 s.c. minipump added to delapril 6 mg.kg^−1.day^−1, week 4) is listed as 40%. For the same compound, the “dopamine receptor agonist activity in relaxing splenic artery strips” value in [9] was “inactive”.

In the case of `NCCc1ccc(O)c(O)c1` [DOPAMINE, dopamine, reference compound], the IC50 in [3] came to 4060 nM; in [4] it was 4910 nM; in [6], 99.3 nM.

Consider `CCOC(=O)[C@H](CCc1ccccc1)N[C@@H](C)C(=O)N(CC(=O)O)C1Cc2ccccc2C1` [delapril, reference compound], for which the urine norepinephrine excretion entry in [8] (delapril alone 6 mg.kg^−1.day^−1, week 4, 24-hour urine) was “unaffected”.
